Test results as given in PubChem BioAssay AID1259407 (Chemical Carcinogenesis Research Information System (CCRIS), 2018).
Calls of active or inactive are those of the source. How the calls were made is not given here.

Test system: CCRIS mutagenicity, Ames/micronucleus/aberration tests
Assay: CCRIS mutagenicity studies
[1] = Test System: AMES SALMONELLA TYPHIMURIUM, Strain/Indicator: TA98, Metabolic Activation: HAMSTER, LIVER, S-9, AROCLOR 1254, Method: STANDARD PLATE
[2] = Test System: AMES SALMONELLA TYPHIMURIUM, Strain/Indicator: TA98, Metabolic Activation: NONE, Method: STANDARD PLATE
[3] = Test System: AMES SALMONELLA TYPHIMURIUM, Strain/Indicator: TA98, Metabolic Activation: RAT, LIVER, S-9, AROCLOR 1254, Method: STANDARD PLATE
[4] = Test System: AMES SALMONELLA TYPHIMURIUM, Strain/Indicator: TA100, Metabolic Activation: HAMSTER, LIVER, S-9, AROCLOR 1254, Method: STANDARD PLATE
[5] = Test System: AMES SALMONELLA TYPHIMURIUM, Strain/Indicator: TA100, Metabolic Activation: NONE, Method: STANDARD PLATE
[6] = Test System: AMES SALMONELLA TYPHIMURIUM, Strain/Indicator: TA100, Metabolic Activation: RAT, LIVER, S-9, AROCLOR 1254, Method: STANDARD PLATE
[7] = Test System: AMES SALMONELLA TYPHIMURIUM, Strain/Indicator: TA1535, Metabolic Activation: HAMSTER, LIVER, S-9, AROCLOR 1254, Method: STANDARD PLATE
[8] = Test System: AMES SALMONELLA TYPHIMURIUM, Strain/Indicator: TA1535, Metabolic Activation: NONE, Method: STANDARD PLATE
[9] = Test System: AMES SALMONELLA TYPHIMURIUM, Strain/Indicator: TA1535, Metabolic Activation: RAT, LIVER, S-9, AROCLOR 1254, Method: STANDARD PLATE
[10] = Test System: AMES SALMONELLA TYPHIMURIUM, Strain/Indicator: TA1537, Metabolic Activation: HAMSTER, LIVER, S-9, AROCLOR 1254, Method: STANDARD PLATE
[11] = Test System: AMES SALMONELLA TYPHIMURIUM, Strain/Indicator: TA1537, Metabolic Activation: NONE, Method: STANDARD PLATE
[12] = Test System: AMES SALMONELLA TYPHIMURIUM, Strain/Indicator: TA1537, Metabolic Activation: RAT, LIVER, S-9, AROCLOR 1254, Method: STANDARD PLATE
[13] = Test System: MOUSE LYMPHOMA, Strain/Indicator: L5178Y (TK+/TK-), Metabolic Activation: NONE, Method: SUSPENSION/PLATE
[14] = Test System: MOUSE LYMPHOMA, Strain/Indicator: L5178Y (TK+/TK-), Metabolic Activation: RAT, LIVER, S-9, AROCLOR 1254, Method: SUSPENSION/PLATE
[15] = Test System: AMES SALMONELLA TYPHIMURIUM, Strain/Indicator: TA100, Metabolic Activation: S-9, Method: STANDARD PLATE

SMILES	mutagenic call [1]	mutagenic call [2]	mutagenic call [3]	mutagenic call [4]	mutagenic call [5]	mutagenic call [6]	mutagenic call [7]	mutagenic call [8]	mutagenic call [9]	mutagenic call [10]	mutagenic call [11]	mutagenic call [12]	mutagenic call [13]	mutagenic call [14]	mutagenic call [15]	further results
CCC/C=N/O	inactive; negative	inactive; negative	inactive; negative	inactive; negative	inactive; negative	inactive; negative	inactive; negative	inactive; negative	inactive; negative	inactive; negative	inactive; negative	inactive; negative	active; positive. reevaluation of results: positive	inactive; negative. reevaluation of results: negative		mutagenic call (Test System: AMES SALMONELLA TYPHIMURIUM, Strain/Indicator: TA1538, Metabolic Activation: HAMSTER, LIVER, S-9, AROCLOR 1254, Method: STANDARD PLATE): inactive; negative; mutagenic call (Test System: AMES SALMONELLA TYPHIMURIUM, Strain/Indicator: TA1538, Metabolic Activation: NONE, Method: STANDARD PLATE): inactive; negative; mutagenic call (Test System: AMES SALMONELLA TYPHIMURIUM, Strain/Indicator: TA1538, Metabolic Activation: RAT, LIVER, S-9, AROCLOR 1254, Method: STANDARD PLATE): inactive; negative
CCOP(=S)(OCC)Oc1ccc([N+](=O)[O-])cc1					inactive; negative										active; positive	mutagenic call (Test System: AMES SALMONELLA TYPHIMURIUM, Strain/Indicator: TA98, Metabolic Activation: NONE, Method: PREINCUBATION): inactive; negative; mutagenic call (Test System: AMES SALMONELLA TYPHIMURIUM, Strain/Indicator: TA98, Metabolic Activation: RAT, LIVER, S-9, KANECHLOR 500, Method: PREINCUBATION): inactive; negative; mutagenic call (Test System: AMES SALMONELLA TYPHIMURIUM, Strain/Indicator: TA100, Metabolic Activation: NONE, Method: PREINCUBATION): active; positive; mutagenic call (Test System: AMES SALMONELLA TYPHIMURIUM, Strain/Indicator: TA100, Metabolic Activation: RAT, LIVER, S-9, KANECHLOR 500, Method: PREINCUBATION): active; positive
CCCCON=O	inactive; negative	inactive; negative	inactive; negative	inactive; negative	active; positive	inactive; negative	active; positive	active; positive	active; positive	inactive; negative	inactive; negative	inactive; negative	active; positive. reevaluation of results: positive	active; positive. reevaluation of results: positive	active; positive	mutagenic call (Test System: AMES SALMONELLA TYPHIMURIUM, Strain/Indicator: TA98, Metabolic Activation: S-9, Method: STANDARD PLATE): active; positive
O=CN(O)c1ccc(Oc2ccccc2)cc1					inactive; negative											mutagenic call (Test System: AMES SALMONELLA TYPHIMURIUM, Strain/Indicator: TA100, Metabolic Activation: RAT, LIVER, S-9, KANECLOR 500, Method: STANDARD PLATE): active; positive
Cc1c2c(cc3c1ccc1ccccc13)C=C[C@@H](O)[C@@H]2O																mutagenic call (Test System: CHINESE HAMSTER V-79, Strain/Indicator: V-79/8-AZAGUANINE, Metabolic Activation: NONE, Method: STANDARD PLATE): active; positive
Cc1ccnc2ccccc12																mutagenic call (Test System: AMES SALMONELLA TYPHIMURIUM, Strain/Indicator: TA100, Metabolic Activation: RAT, LIVER, S-9, PHENOBARBITAL AND 5,6-BENZOFLAVONE, Method: PREINCUBATION): active; positive; mutagenic call (Test System: AMES SALMONELLA TYPHIMURIUM, Strain/Indicator: TA100, Metabolic Activation: RAT, LIVER, S-9, PHENOBARBITAL AND 5,6-NAPHTHOFLAVONE, Method: PREINCUBATION): active; positive; mutagenic call (Test System: AMES SALMONELLA TYPHIMURIUM, Strain/Indicator: TA100, Metabolic Activation: RAT, LIVER, S-9, Method: PREINCUBATION): active; positive; mutagenic call (Test System: UDS RODENT HEPATOCYTES, Strain/Indicator: THY INCORP (NON-S-PHASE), Metabolic Activation: NONE, Method: AUTORADIOGRAPHY): active; positive
